Values of other authors, collected in patent US20220354806A1, “COMPOSITION FOR IMPROVING MEMORY” (BGG JAPAN CO., LTD., priority 2019, published 2022).

Experiments:
[1] = placebo group ingesting corn oil
[2] = after ingesting compared with before ingesting; no placebo comparison
[3] = greater than that of a vitamin E

For `CC1=C(/C=C/C(C)=C/C=C/C(C)=C/C=C/C=C(C)/C=C/C=C(C)/C=C/C2=C(C)C(=O)C(O)CC2(C)C)C(C)(C)CC(O)C1=O` (stereo not drawn) [astaxanthin, 3,3′-dihydroxy-β,β-carotene-4,4′-dione], the “improvement effect on the human cognitive function, astaxanthin group vs placebo group” value [1] is given as “a significant difference of the improvement effect on the human cognitive function is not confirmed”, the “correct answer rate in the operation of the "working memory"” value [2] is given as “improved” and the “response time of all 5 operations (simple reaction, choice reaction, working memory, delayed recall, divided attention)” value [2] is given as “improved”. The “anti-oxidation effect relative to vitamin E” value [3] was 1000 times.
